In patent US8466132B2, “Substituted tetracycline compounds” (Paratek Pharmaceuticals, Inc., priority 2004, dated 2013):

Legend:
Format in all cases: cell-based
in vitro = experiment: in vitro
Protocol: COS-1 and CHO-K1 cell suspensions were prepared, seeded into 96-well tissue culture treated black-walled microtiter plates (density determined by cell line), and incubated overnight at 37° C., in 5% CO2 and approximately 95% humidity. The following day, serial dilutions of drug were prepared under sterile conditions and transferred to cell plates. Cell/Drug plates were incubated under the above conditions for 24 hours. Following the incubation period, media/drug was aspirated and 50 μL of Resazurin (0.042 mg/ml in PBS w/Ca and Mg) was added. The plates were then incubated under the above conditions for 2 hours and then in the dark at room temperature for an additional 30 minutes. Fluorescence measurements were taken (excitation 535 nm, emission 590 nm). The IC50 (concentration of drug causing 50% growth inhibition) was then calculated.

S. pneumoniae 157E = experiment: In vitro minimum inhibitory concentration (MIC) assay, S. pneumoniae; set-up: key: Compounds which showed superior inhibition of S. aureus, S. pseumoniae and E. coli are indicated by “***,”; compounds which showed very good or good inhibition of S. aureus, S. pseumoniae and E. coli are indicated by “**” or “*” respectively; compounds which showed very good or good inhibition of S. aureus, S. pseumoniae and E. coli are indicated by “**” or “*” respectively; conditions: broth microdilution in CAMHB, 35° C., approximately 18 hour
Protocol: (§1) The following assay is used to determine the efficacy of the tetracycline compounds against common bacteria. 2 mg of each compound is dissolved in 100 μl of DMSO. The solution is then added to cation-adjusted Mueller Hinton broth (CAMHB), which results in a final compound concentration of 200 μg per ml. The tetracycline compound solutions are diluted to 50 μL volumes, with a test compound concentration of 0.098 μg/ml. Optical density (OD) determinations are made from fresh log-phase broth cultures of the test strains. Dilutions are made to achieve a final cell density of 1×10^6 CFU/ml. At OD=1, cell densities for different genera should be approximately:
(§2) 50 μl of the cell suspensions are added to each well of microtiter plates. The final cell density should be approximately 5×10^5 CFU/ml. These plates are incubated at 35° C. in an ambient air incubator for approximately 18 hour. The plates are read with a microplate reader and are visually inspected when necessary. The MIC is defined as the lowest concentration of the tetracycline compound that inhibits growth.
(§3) Table 3 gives the MIC (μg/mL) of selected substituted tetracycline compounds against S. aureus, S. pseuimoniae, and E. coli.

E. coli MG 1655 = experiment: In vitro minimum inhibitory concentration (MIC) assay, E. coli; set-up: key: Compounds which showed superior inhibition of S. aureus, S. pseumoniae and E. coli are indicated by “***,”; compounds which showed very good or good inhibition of S. aureus, S. pseumoniae and E. coli are indicated by “**” or “*” respectively; compounds which showed very good or good inhibition of S. aureus, S. pseumoniae and E. coli are indicated by “**” or “*” respectively; conditions: broth microdilution in CAMHB, 35° C., approximately 18 hour
Protocol: as §1, §2, §3

S. aureus RN450 = experiment: In vitro minimum inhibitory concentration (MIC) assay, S. aureus; set-up: key: Compounds which showed superior inhibition of S. aureus, S. pseumoniae and E. coli are indicated by “***,”; compounds which showed very good or good inhibition of S. aureus, S. pseumoniae and E. coli are indicated by “**” or “*” respectively; compounds which showed very good or good inhibition of S. aureus, S. pseumoniae and E. coli are indicated by “**” or “*” respectively; conditions: broth microdilution in CAMHB, 35° C., approximately 18 hour
Protocol: as §1, §2, §3

SMILES	IC50 at 24 h (in vitro) [µg/mL]	Median MIC for S. pneumoniae 157E (S. pneumoniae 157E)	Median MIC for E. coli MG 1655 (E. coli MG 1655)	Median MIC for S. aureus RN450 (S. aureus RN450)
CN(C)c1ccc(O)c2c1C[C@H]1C[C@H]3[C@H](N(C)C)C(O)=C(C(N)=O)C(=O)[C@@]3(O)C(O)=C1C2=O [minocycline, Minocycline]	> 25			
CN(C)c1cc(-c2ccc(C(N)=O)cc2)c(O)c2c1C[C@H]1C[C@H]3[C@H](N(C)C)C(O)=C(C(N)=O)C(=O)[C@@]3(O)C(O)=C1C2=O		**	*	*
COCCN(C)C(=O)c1cc(N(C)C)c2c(c1O)C(=O)C1=C(O)[C@]3(O)C(=O)C(C(N)=O)=C(O)[C@@H](N(C)C)[C@@H]3C[C@@H]1C2		*	*	*
CN(C)c1cc(C#N)c(O)c2c1C[C@H]1C[C@H]3[C@H](N(C)C)C(O)=C(C(N)=O)C(=O)[C@@]3(O)C(O)=C1C2=O		***	**	***
CN(C)c1cc(C(=O)NO)c(O)c2c1C[C@H]1C[C@H]3[C@H](N(C)C)C(O)=C(C(N)=O)C(=O)[C@@]3(O)C(O)=C1C2=O		*	*	*
CN(C)c1cc(-c2cnoc2)c(O)c2c1C[C@H]1C[C@H]3[C@H](N(C)C)C(O)=C(C(N)=O)C(=O)[C@@]3(O)C(O)=C1C2=O		***	*	***
CN(C)c1cc(-c2cnccn2)c(O)c2c1C[C@H]1C[C@H]3[C@H](N(C)C)C(O)=C(C(N)=O)C(=O)[C@@]3(O)C(O)=C1C2=O		***	*	***
CN(C)c1cc(C(=O)C(=O)O)c(O)c2c1C[C@H]1C[C@H]3[C@H](N(C)C)C(O)=C(C(N)=O)C(=O)[C@@]3(O)C(O)=C1C2=O		*	*	**
CN(C)c1cc(-c2ccsc2)c(O)c2c1C[C@H]1C[C@H]3[C@H](N(C)C)C(O)=C(C(N)=O)C(=O)[C@@]3(O)C(O)=C1C2=O		***	*	***
CCCCNC(=O)c1cc(N(C)C)c2c(c1O)C(=O)C1=C(O)[C@]3(O)C(=O)C(C(N)=O)=C(O)[C@@H](N(C)C)[C@@H]3C[C@@H]1C2		*	*	*
C[C@H]1c2cccc(O)c2C(=O)C2=C(O)[C@]3(O)C(=O)C(C(N)=O)=C(O)[C@@H](N(C)C)[C@@H]3[C@@H](O)[C@@H]21 [doxycycline, Doxycycline]	> 25			
CN(C)c1cc(C(=O)NOC(C)(C)C)c(O)c2c1C[C@H]1C[C@H]3[C@H](N(C)C)C(O)=C(C(N)=O)C(=O)[C@@]3(O)C(O)=C1C2=O		*	*	*
CNC(=O)c1cc(N(C)C)c2c(c1O)C(=O)C1=C(O)[C@]3(O)C(=O)C(C(N)=O)=C(O)[C@@H](N(C)C)[C@@H]3C[C@@H]1C2		*	*	*
COC(=O)CNC(=O)c1cc(N(C)C)c2c(c1O)C(=O)C1=C(O)[C@]3(O)C(=O)C(C(N)=O)=C(O)[C@@H](N(C)C)[C@@H]3C[C@@H]1C2		*	*	*
COC(=O)C#Cc1cc(N(C)C)c2c(c1O)C(=O)C1=C(O)[C@]3(O)C(=O)C(C(N)=O)=C(O)[C@H](N(C)C)[C@@H]3C[C@@H]1C2		***	*	***
CN(C)c1cc(C(=O)Nc2ccccc2)c(O)c2c1C[C@H]1C[C@H]3[C@H](N(C)C)C(O)=C(C(N)=O)C(=O)[C@@]3(O)C(O)=C1C2=O		***	*	***
CN(C)c1cc(C(=O)NCCN)c(O)c2c1C[C@H]1C[C@H]3[C@H](N(C)C)C(O)=C(C(N)=O)C(=O)[C@@]3(O)C(O)=C1C2=O		***	*	*
CN(C)c1cc(-c2cncnc2)c(O)c2c1C[C@H]1C[C@H]3[C@H](N(C)C)C(O)=C(C(N)=O)C(=O)[C@@]3(O)C(O)=C1C2=O		***	*	***
CC(=O)Nc1ccc(-c2cc(N(C)C)c3c(c2O)C(=O)C2=C(O)[C@]4(O)C(=O)C(C(N)=O)=C(O)[C@@H](N(C)C)[C@@H]4C[C@@H]2C3)cn1		***	*	***
CONC(=O)c1cc(N(C)C)c2c(c1O)C(=O)C1=C(O)[C@]3(O)C(=O)C(C(N)=O)=C(O)[C@@H](N(C)C)[C@@H]3C[C@@H]1C2		*	*	*
CN(C)c1cc(-c2ccc(C(=O)O)s2)c(O)c2c1C[C@H]1C[C@H]3[C@H](N(C)C)C(O)=C(C(N)=O)C(=O)[C@@]3(O)C(O)=C1C2=O		*	*	*
CN(C)c1cc(-c2nccs2)c(O)c2c1C[C@H]1C[C@H]3[C@H](N(C)C)C(O)=C(C(N)=O)C(=O)[C@@]3(O)C(O)=C1C2=O		**	*	***
CN(C)c1cc(C#CC(=O)O)c(O)c2c1C[C@H]1C[C@H]3[C@@H](N(C)C)C(O)=C(C(N)=O)C(=O)[C@@]3(O)C(O)=C1C2=O		*	*	*
CN(C)c1cc(C(=O)N2CCCCCC2)c(O)c2c1C[C@H]1C[C@H]3[C@H](N(C)C)C(O)=C(C(N)=O)C(=O)[C@@]3(O)C(O)=C1C2=O		*	*	**
CN(C)c1cc(-c2cccc(C(N)=O)c2)c(O)c2c1C[C@H]1C[C@H]3[C@H](N(C)C)C(O)=C(C(N)=O)C(=O)[C@@]3(O)C(O)=C1C2=O		**	*	***
